Laboratory results reported in DBAASP.
Values after ≈ are worked out from the molar mass of the structure shown. Values joined by “and” are separate entries in the source; they are usually repeats but may differ in a detail not shown here. Equal values may be shown once.

Legend:
Assay in all cases: ≥ marks a high value that may be exact or a test limit, other limits are often not marked, values filed in µg/mL are converted to µM
Vibrio cholerae non-O139 = tested on: Vibrio cholerae non-O139
[1] = tested on: Salmonella enterica subsp. enterica serovar Typhi DMST 22842
[2] = tested on: Lysinibacillus sphaericus TISTR 678
[3] = tested on: Escherichia coli ATCC 25922
[4] = tested on: Salmonella enterica subsp. enterica serovar Typhi
Bacillus megaterium = tested on: Bacillus megaterium
Escherichia coli O157:H7 = tested on: Escherichia coli O157:H7
Vibrio cholerae non-O1 = tested on: Vibrio cholerae non-O1
[5] = tested on: Salmonella enterica subsp. enterica serovar Typhi ATCC 5784
[6] = tested on: Staphylococcus epidermidis
[7] = tested on: Staphylococcus epidermidis ATCC 12228
[8] = tested on: Staphylococcus aureus ATCC 25923
[9] = tested on: Pseudomonas aeruginosa ATCC 27853
[10] = tested on: Candida albicans ATCC 64550
[11] = tested on: Staphylococcus aureus KCTC 1621
[12] = tested on: Trichosporon beigelii KCTC 7251
[13] = tested on: Fusarium oxysporum KCTC 6084
[14] = tested on: Bacillus megaterium KCTC 1096
[15] = tested on: Escherichia coli KCTC 1682
Proteus vulgaris = tested on: Proteus vulgaris
[16] = tested on: Bacillus subtilis KCTC 1918
[17] = tested on: Pseudomonas aeruginosa KCTC 1637
[18] = tested on: Candida albicans KCTC 7121
[19] = tested on: Aspergillus flavus KCTC 7375
[20] = tested on: Staphylococcus aureus ATCC 25929
[21] = tested on: Bacillus subtilis CMCC 63501
[22] = tested on: Staphylococcus aureus ATCC 29213
[23] = tested on: Staphylococcus pseudintermedius
[24] = tested on: Salmonella enterica subsp. enterica serovar Typhimurium C77-31
[25] = tested on: Salmonella enterica subsp. enterica serovar Enteritidis
[26] = tested on: Enterococcus faecalis ATCC 29212
[27] = tested on: Candida albicans ATCC 10231
[28] = tested on: Aeromonas veronii biovar sobria BJCP-5
[29] = tested on: Salmonella enterica subsp. enterica serovar Pullorum C79-13
[30] = tested on: Micrococcus luteus CIP 5345
Botrytis cinerea = tested on: Botrytis cinerea
Escherichia coli SBS 363 = tested on: Escherichia coli SBS 363
Fusarium oxysporum = tested on: Fusarium oxysporum
[31] = tested on: Staphylococcus aureus IFO 12732
[32] = tested on: Escherichia coli IFO 12734
[33] = tested on: Bacillus subtilis IFO 3513

## CC(C)[C@H](NC(=O)CNC(=O)[C@@H](N)CC(N)=O)C(=O)N[C@@H](CCC(N)=O)C(=O)N1CCC[C@H]1C(=O)N[C@@H](CCCCN)C(=O)N[C@@H](Cc1ccc(O)cc1)C(=O)O [NGVQPKY]
Vibrio cholerae non-O139
  MIC: ≥ 248 µM
[1]
  MIC: ≥ 248 µM
[2]
  MIC: ≥ 64 µM
[3]
  MIC: > 248 µM
[4]
  MIC: 31.1 µM and ≥ 64 µM
Bacillus megaterium
  MIC: ≥ 64 µM
Escherichia coli O157:H7
  MIC: ≥ 64 µM
Vibrio cholerae non-O1
  MIC: ≥ 248 µM
[5]
  MIC: ≥ 64 µM
[6]
  MIC: 31.1 µM (≈ 25 µg/mL)
[7]
  MIC: > 248 µM
[8]
  MIC: > 248 µM
[9]
  MIC: > 248 µM

## CC(C)C[C@H](NC(=O)[C@H](Cc1c[nH]c2ccccc12)NC(=O)[C@@H](N)CCCCN)C(=O)N[C@@H](CCCN=C(N)N)C(=O)N[C@@H](CCCN=C(N)N)C(=O)N[C@H](C(=O)N[C@@H](Cc1c[nH]c2ccccc12)C(=O)N[C@@H](CCCN=C(N)N)C(=O)N[C@@H](Cc1c[nH]c2ccccc12)C(=O)N[C@@H](Cc1c[nH]c2ccccc12)C(=O)N[C@@H](CCCN=C(N)N)C(N)=O)C(C)C [KWLRRVWRWWR]
[3]
  MIC: 15 µM (≈ 25.9 µg/mL)
[8]
  MIC: 2.5 µM (≈ 4.32 µg/mL)
[10]
  MIC: ≥ 100 µM
[9]
  MIC: 20 µM (≈ 34.5 µg/mL)

## CC[C@H](C)[C@H](NC(=O)[C@H](CCCCN)NC(=O)[C@H](CCCCN)NC(=O)[C@H](Cc1ccccc1)NC(=O)[C@H](CC(C)C)NC(=O)[C@H](CCCCN)NC(=O)[C@H](Cc1c[nH]c2ccccc12)NC(=O)[C@@H](N)CCCCN)C(=O)N1CCC[C@H]1C(=O)N[C@@H](CCCCN)C(=O)N[C@@H](Cc1ccccc1)C(=O)N[C@@H](CC(C)C)C(=O)N[C@@H](Cc1cnc[nH]1)C(=O)N[C@@H](CC(C)C)C(=O)N[C@@H](C)C(=O)N[C@@H](CCCCN)C(N)=O [KWKLFKKIPKFLHLAK]
[11]
  MIC: 3.12 µM (≈ 6.33 µg/mL)
[12]
  MIC: ≥ 50 µM
[13]
  MIC: ≥ 50 µM
[14]
  MIC: 3.12 µM (≈ 6.33 µg/mL)
[15]
  MIC: 4.42 µM (≈ 8.95 µg/mL)
Proteus vulgaris
  MIC: 1.56 µM (≈ 3.16 µg/mL)
[16]
  MIC: 1.56 µM (≈ 3.16 µg/mL)
[17]
  MIC: 6.25 µM (≈ 12.7 µg/mL)
[18]
  MIC: ≥ 50 µM
[19]
  MIC: ≥ 50 µM

## CC(C)C[C@H](NC(=O)CNC(=O)[C@H](C)NC(=O)[C@H](CC(C)C)NC(=O)[C@H](CC(C)C)NC(=O)[C@@H](NC(=O)[C@H](CCCCN)NC(=O)[C@H](CC(C)C)NC(=O)[C@H](CC(C)C)NC(=O)[C@H](C)NC(=O)[C@@H]1CCCN1C(=O)[C@H](CC(C)C)NC(=O)[C@H](C)NC(=O)[C@@H](NC(=O)CNC(=O)[C@H](CC(C)C)NC(=O)[C@@H](N)CCCN=C(N)N)[C@@H](C)O)[C@@H](C)O)C(=O)N[C@@H](CC(N)=O)C(=O)NCC(N)=O [RLGTALPALLKTLLAGLNG]
[20]
  MIC: 17 µM (≈ 32.2 µg/mL)
[3]
  MIC: 17 µM (≈ 32.2 µg/mL)

## CC[C@H](C)[C@H](NC(=O)[C@@H]1CCCN1C(=O)[C@@H](N)CO)C(=O)N[C@@H](Cc1cnc[nH]1)C(=O)N[C@@H](C)C(=O)N[C@H]1CSSC[C@@H]2NC(=O)[C@H](CO)NC(=O)[C@H](CCCCN)NC(=O)[C@H](CC(C)C)NC(=O)CNC(=O)[C@H](CO)NC(=O)CNC(=O)[C@@H]3CSSC[C@H](NC(=O)[C@H](C(C)C)NC(=O)CNC(=O)[C@H](CCCN=C(N)N)NC(=O)[C@H](CCC(N)=O)NC(=O)[C@H](Cc4ccc(O)cc4)NC(=O)[C@H](CCCN=C(N)N)NC1=O)C(=O)N[C@@H]([C@@H](C)CC)C(=O)N1CCC[C@H]1C(=O)NCC(=O)N1CCC[C@H]1C(=O)N[C@@H](CSSC[C@@H](C(=O)N[C@H](C(=O)N[C@@H](CCCN=C(N)N)C(=O)N[C@@H](CC(N)=O)C(=O)N[C@@H](CCCN=C(N)N)C(=O)N[C@@H](Cc1c[nH]c4ccccc14)C(=O)N[C@@H](C)C(=O)O)C(C)C)NC2=O)C(=O)N[C@@H](CCCN=C(N)N)C(=O)N[C@@H](Cc1c[nH]c2ccccc12)C(=O)N1CCC[C@H]1C(=O)N[C@@H](Cc1ccc(O)cc1)C(=O)N[C@@H](Cc1ccc(O)cc1)C(=O)N[C@@H](CCCN=C(N)N)C(=O)N[C@@H](C(C)C)C(=O)NCC(=O)N[C@@H](CO)C(=O)N3 [SPIHACRYQRGVCIPGPCRWPYYRVGSCGSGLKSCCVRNRWA]
[21]
  MIC: 8 µM (≈ 37.9 µg/mL)
[22]
  MIC: 54 µM and > 27 µM
[23]
  MIC: ≥ 54 µM
[24]
  MIC: 2.23 µM (≈ 10.6 µg/mL)
[25]
  MIC: 4 µM (≈ 19 µg/mL)
[26]
  MIC: 2 µM (≈ 9.48 µg/mL)
[27]
  MIC: 16 µM (≈ 75.8 µg/mL)
[7]
  MIC: 2.23 µM (≈ 10.6 µg/mL)
[28]
  MIC: 0.5 µM (≈ 2.37 µg/mL)
[29]
  MIC: 2.23 µM (≈ 10.6 µg/mL)
[8]
  MIC: 0.569 µM (≈ 2.7 µg/mL)

## CC[C@H](C)[C@H](N)C(=O)N[C@@H](CC(C)C)C(=O)N[C@@H](CCC(=O)O)C(=O)N[C@@H](CC(N)=O)C(=O)N[C@@H](CC(C)C)C(=O)N[C@@H](CC(C)C)C(=O)N[C@@H](C)C(=O)N[C@@H](CCCN=C(N)N)C(=O)N[C@@H](CO)C(=O)N[C@H](C(=O)N[C@@H](CC(N)=O)C(=O)N[C@@H](CCC(=O)O)C(=O)N[C@@H](CC(=O)O)C(=O)N[C@@H](CCCN=C(N)N)C(=O)N[C@@H](CCC(=O)O)C(=O)NCC(=O)N[C@@H](CO)C(=O)N[C@H](C(=O)N[C@@H](Cc1ccccc1)C(=O)O)[C@@H](C)CC)[C@@H](C)O [ILENLLARSTNEDREGSIF]
[30]
  MIC: ≥ 200 µM
Botrytis cinerea
  MIC: ≥ 200 µM
Escherichia coli SBS 363
  MIC: ≥ 200 µM
Fusarium oxysporum
  MIC: ≥ 200 µM

## CC[C@H](C)[C@H](N)C(=O)N[C@@H](CC(C)C)C(=O)N1CCC[C@H]1C(=O)N[C@@H](Cc1c[nH]c2ccccc12)C(=O)N[C@@H](CCCCN)C(=O)N[C@@H](Cc1c[nH]c2ccccc12)C(=O)N1CCC[C@H]1C(=O)N[C@@H](Cc1c[nH]c2ccccc12)C(=O)N[C@@H](CC(C)C)C(=O)N1CCC[C@H]1C(=O)N[C@@H](CC(C)C)C(=O)N[C@@H](CCCN=C(N)N)C(=O)N[C@@H](CCCN=C(N)N)C(N)=O [ILPWKWPWLPLRR]
[31]
  MIC: 14.2 µM (≈ 25 µg/mL)
[32]
  MIC: ≥ 56.8 µM
[33]
  MIC: 28.4 µM (≈ 50 µg/mL)
